Test results taken from ChEMBL document CHEMBL4118070, “Synthesis, antimicrobial, antiquorum-sensing and antitumor activities of new benzimidazole analogs” (Eur J Med Chem, 2017).
Values after ≈ are worked out from the molar mass of the structure shown. Active and inactive are the calls of the source. The rule behind the calls is not given here.

How the values were obtained:
[1] = tested on: Escherichia coli; test: Antibacterial activity against Escherichia coli ATCC 12435 after 24 hrs by two-fold serial dilution method; type: functional; details: ATCC 12435, 24 h
[2] = tested on: Bacillus cereus; test: Antibacterial activity against Bacillus cereus UW 85 after 24 hrs by two-fold serial dilution method; type: functional; details: UW 85, 24 h
[3] = tested on: Staphylococcus aureus; test: Antibacterial activity against Staphylococcus aureus ATCC 29213 after 24 hrs by two-fold serial dilution method; type: functional; details: ATCC 29213, 24 h
[4] = tested on: Candida albicans; test: Antifungal activity against Candida albicans after 48 hrs by two-fold serial dilution method; type: functional
[5] = tested on: Aspergillus fumigatus; test: Antifungal activity against Aspergillus fumigatus 293 after 48 hrs by two-fold serial dilution method; type: functional; details: Af293, 48 h
[6] = tested on: Chromobacterium violaceum; test: Inhibition of quorum sensing system in Chromobacterium violaceum ATCC 12472 assessed as diameter of violacein pigment inhibition at 5 mg/ml after 48 hrs
[7] = tested on: HepG2; test: Cytotoxicity against human HepG2 cells assessed as decrease in cell viability after 48 hrs by MTT assay; type: functional, cell-based; details: HepG2, 48 h
[8] = tested on: HCT-116; test: Cytotoxicity against human HCT116 cells assessed as decrease in cell viability after 48 hrs by MTT assay; type: functional, cell-based; details: HCT-116, 48 h
[9] = tested on: MCF7; test: Cytotoxicity against human MCF7 cells assessed as decrease in cell viability after 48 hrs by MTT assay; type: functional, cell-based; details: MCF7, 48 h
[10] = tested on: Ehrlich; test: Antitumor activity against mouse EAC allografted in Swiss mouse assessed as mean mouse survival time at 0.5 mg administered 9 days (reference value: 14.5 days); type: functional
[11] = tested on: Ehrlich; test: Antitumor activity against mouse EAC allografted in Swiss mouse assessed as increase in mouse life span at 0.5 mg administered 9 days relative to control; type: functional
[12] = tested on: Ehrlich; test: Antitumor activity against mouse EAC allografted in Swiss mouse assessed as tumor volume at 0.5 mg administered 9 days (reference value: 9.85 ml); type: functional
[13] = tested on: Ehrlich; test: Antitumor activity against mouse EAC allografted in Swiss mouse assessed as decrease in viable tumor cell count at 0.5 mg administered 9 days by trypan blue staining method; type: functional
[14] = tested on: Ehrlich; test: Antitumor activity against mouse EAC allografted in Swiss mouse assessed as hemoglobin count in blood at 0.5 mg administered 9 days (reference value: 8.73 g/dl); type: functional
[15] = tested on: Ehrlich; test: Antitumor activity against mouse EAC allografted in Swiss mouse assessed as RBC count in blood at 0.5 mg administered 9 days (reference value: 3.69 10^6/mm3); type: functional
[16] = tested on: Ehrlich; test: Antitumor activity against mouse EAC allografted in Swiss mouse assessed as WBC count in blood at 0.5 mg administered 9 days (reference value: 23.96 10^3/mm3); type: functional
[17] = tested on: WI-38; test: Cytotoxicity against human W138 cells assessed as decrease in cell viability after 48 hrs by MTT assay; type: cell-based; details: WI-38, 48 h
[18] = Displacement of methyl green from DNA (unknown origin) incubated in dark for 24 hrs by colorimetric method

Structure (SMILES) | MIC [1] | MIC [2] | MIC [3] | MIC [4] [µM] | MIC [5] | Activity [6] [mm] | IC50 [7] [µM] | IC50 [8] [µM] | IC50 [9] [µM] | MST [10] [days] | ILS [11] [%] | Activity [12] [mL] | Activity [13] | Activity [14] [g/dL] | Activity [15] [×10⁶ /mm3] | Activity [16] [×10³ /mm3] | IC50 [17] [µM] | IC50 [18] [µM]
O=[N+]([O-])c1ccc2[nH]c(CSCc3nc4cc([N+](=O)[O-])ccc4[nH]3)nc2c1 | 1630 µM | 813 µM | 406 µM | 406 (≈ 156 µg/mL) | 406 µM | 11 | 2.25 | 2.41 | 1.74 | 47 | 224.14 | 2.22 | Active | 13.18 | 5.45 | 7.23 | 25.4 | 37.1
NC(=S)NNC(=O)CSCc1nc2cc([N+](=O)[O-])ccc2[nH]1 | > 2500 µg/mL | 3670 µM | 918 µM | 459 (≈ 156 µg/mL) | 1840 µM | 11 | 7.05 | 4.71 | 7.53 |  |  |  |  |  |  |  |  | 66.2
CC1=NN(C(=O)CSCc2nc3cc([N+](=O)[O-])ccc3[nH]2)C(=O)C1 | > 2500 µg/mL | > 2500 µg/mL | > 2500 µg/mL | 7200 (≈ 2500 µg/mL) | > 2500 µg/mL | < 2 | 7.33 | 5.41 | 8.07 |  |  |  |  |  |  |  |  | 
O=C(CSCc1nc2cc([N+](=O)[O-])ccc2[nH]1)N/N=C/c1ccc(Cl)cc1 | > 2500 µg/mL | > 2500 µg/mL | > 2500 µg/mL | 774 (≈ 312 µg/mL) | 1550 µM | < 2 | 56.8 | 15.3 | 13.7 |  |  |  |  |  |  |  |  | 
Oc1cc(O)c2c(c1)O[C@H](c1ccc(O)c(O)c1)[C@@H](O)C2 |  |  |  |  |  | 2 |  |  |  |  |  |  |  |  |  |  |  | 
O=C(CSCc1nc2cc([N+](=O)[O-])ccc2[nH]1)c1ccccc1 | > 2500 µg/mL | > 2500 µg/mL | 3820 µM | 1910 (≈ 625 µg/mL) | 7640 µM | < 2 | 16.1 | 12.3 | 18.6 |  |  |  |  |  |  |  |  | 
N#CCSCc1nc2cc([N+](=O)[O-])ccc2[nH]1 | > 2500 µg/mL | 5040 µM | > 2500 µg/mL | 5040 (≈ 1250 µg/mL) | 5040 µM | < 2 | 30.6 | 28.2 | 27.4 |  |  |  |  |  |  |  |  | 
COc1cccc2c1C(=O)c1c(O)c3c(c(O)c1C2=O)C[C@@](O)(C(=O)CO)C[C@@H]3O[C@H]1C[C@H](N)[C@H](O)[C@H](C)O1 [DOXORUBICIN] |  |  |  |  |  |  |  |  |  |  |  |  |  |  |  |  |  | 32.4
NC(=O)CSCc1nc2cc([N+](=O)[O-])ccc2[nH]1 | 587 µM | 293 µM | 147 µM | 147 (≈ 39.1 µg/mL) | 293 µM | 9 | 26.9 | 17.2 | 19.7 |  |  |  |  |  |  |  |  | 41.3
O=C(CSCc1nc2cc([N+](=O)[O-])ccc2[nH]1)c1ccc(Cl)cc1 | > 2500 µg/mL | 6910 µM | 864 µM | 864 (≈ 312 µg/mL) | 3450 µM | < 2 | 2.65 | 2.23 | 2.8 | 39.2 | 170.34 | 2.83 | Active | 12.32 | 4.87 | 9.1 | 33.8 | 62.8
CCOC(=O)c1c(NC(=O)CSCc2nc3cc([N+](=O)[O-])ccc3[nH]2)sc2c1CCCCC2 | 2560 µM | 2560 µM | 2560 µM | 1280 (≈ 625 µg/mL) | 2560 µM | < 2 | 7.39 | 7.51 | 10.3 |  |  |  |  |  |  |  |  | 
NNC(=O)CSCc1nc2cc([N+](=O)[O-])ccc2[nH]1 | > 2500 µg/mL | > 2500 µg/mL | > 2500 µg/mL | 1110 (≈ 312 µg/mL) | 4440 µM | < 2 | 18.6 | 5.33 | 13.2 |  |  |  |  |  |  |  |  | 87.2
OC(Cn1cncn1)(Cn1cncn1)c1ccc(F)cc1F [FLUCONAZOLE] |  |  |  | 8160 (≈ 2500 µg/mL) | > 2500 µg/mL |  |  |  |  |  |  |  |  |  |  |  |  | 
N#Cc1sc(Nc2ccccc2)nc1NC(=O)CSCc1nc2cc([N+](=O)[O-])ccc2[nH]1 | > 2500 µg/mL | 5370 µM | 5370 µM | 2690 (≈ 1250 µg/mL) | 5370 µM | < 2 | 9.48 | 8.43 | 11.3 |  |  |  |  |  |  |  |  | 
CC1(C)S[C@@H]2[C@H](NC(=O)[C@H](N)c3ccccc3)C(=O)N2[C@H]1C(=O)O [AMPICILLIN] | 55.9 µM | 3580 µM | 894 µM |  |  |  |  |  |  |  |  |  |  |  |  |  |  | 
O=c1[nH]cc(F)c(=O)[nH]1 [FLUOROURACIL] |  |  |  |  |  |  | 5.3 | 4 | 4.3 | 49 | 237.93 | 1.6 |  | 12.96 | 5.21 | 8.86 | 5.73 | 
CCOC(=O)CSCc1nc2cc([N+](=O)[O-])ccc2[nH]1 | 4230 µM | 2120 µM | 2120 µM | 2120 (≈ 625 µg/mL) | 2120 µM | < 2 | > 100 | > 100 | > 100 |  |  |  |  |  |  |  |  | 
O=[N+]([O-])c1ccc2[nH]c(CSCc3nc4ccccc4[nH]3)nc2c1 | > 2500 µg/mL | > 2500 µg/mL | 3680 µM | 3680 (≈ 1250 µg/mL) | > 2500 µg/mL | 4 | 11.2 | 7.91 | 13.1 |  |  |  |  |  |  |  |  | 
O=C(CSCc1nc2cc([N+](=O)[O-])ccc2[nH]1)NNC(=S)Nc1ccccc1 | > 2500 µg/mL | > 2500 µg/mL | > 2500 µg/mL | 375 (≈ 156 µg/mL) | 750 µM | < 2 | > 100 | 29.2 | > 100 |  |  |  |  |  |  |  |  | 52.3
